Measurements: US8163691B2, “Compositions and methods for identifying agents which modulate PTEN function and PI-3 kinase pathways” (Indiana University Research & Research Corporation, priority 2000, dated 2012)
“Also recorded” adds a separate entry of the source.

Assays:
[1] = system: U87MG cells; assay: Orthotopic (intracranial) U87MG brain tumor model in nude mice; type: in vivo, mouse; details: examined on day 42; DMSO controls 4/5 by day 25
Experimental: To determine whether PTEN exerts control over angiogenesis and/or the growth of glial tumors, an orthotopic brain tumor model was developed in which PTEN-deficient tumor cells were genetically manipulated in vitro and then stereotactically injected into the frontal cerebral cortex of nude mice. The U87MG cell line employed in these studies is derived from a patient diagnosed with glioblastoma multiforme, a highly malignant and uniformly fatal brain tumor. This tumor and other human glioblastomas and glioblastoma cell lines contain a mutation in both PTEN alleles (U87MG cells have a homozygous mutation in PTEN resulting in a null genotype). We also examined the effect of LY294002 on tumor growth and incidence of brain tumor in a nude mouse model. In a previous study, in vivo activity of LY294002 against an ovarian carcinoma was observed. […] In other words, the carcinoma was not assessed in its natural milieu. Hu et al., Clin. Can. Res. 6:880). […] In control mice treated with DMSO, 4/5 had grossly visible and/or histologically confirmed brain tumors by H & E analysis by day 25 after implantation, whereas in 0/5 mice treated with LY294002 had grossly detectable or histologic evidence of intracranial tumor when examined on day 42.

[2] = system: U87MG cells; assay: Subcutaneous U87MG tumor growth in nude mice; type: in vivo, mouse; details: LY294002 100 mg/kg daily i.p.; control approximately 400 mm3
Experimental: LY294002 was administered at a dosage of 100 mg/kg delivered daily by intraperitoneal injection in a small volume of 100% DMSO for 2 weeks, beginning 2 days after tumor implantation. […] Control mice were injected with small volume ([…]) of 100% DMSO. Daily measurement of tumor volume was performed in 3 coordinates using calipers. To determine whether PI-3 kinase exerts control over angiogenesis or the growth of glial tumors in vivo the orthotopic brain tumor model described in Example I was utilized. To assess the effect of LY294002 on angiogenesis, we treated mice with LY294002 (100 mg/kg/dose×2 weeks) or DMSO as negative control. Tumor volumes were recorded daily (FIG. 15). On day 14 we stained cryostat sections from subcutaneous tumors for CD31 (PECAM). CD31 is an endothelial marker used to measure the microvessel density of these tumors. Microvessel density was assessed from multiple digitized images of CD31-stained tumor tissue at 100× magnification (3 fields were evaluated per tumor) and counted blindly for the number of CD31 positive microvessels per unit surface area as described (Weidner et al., (1991) N. Engl. J. Med. 324:1). […] Importantly, microvessel determinations were performed on day 7 after implantation to compare angiogenic activity of tumors of similar size. […]

[3] = system: U87MG cells; assay: Microvessel density (CD31 positive microvessels) in subcutaneous U87MG tumor tissue; type: in vivo, mouse; details: LY294002 100 mg/kg/dose x 2 weeks i.p.; controls (DMSO) 50±6
Experimental: Microvessel density (MVD) was determined for each brain tumor as described in Example I by CD31 staining, performed on cryostat sections (7 μm), fixed in acetone, blocked in 1% goat serum and stained with anti-CD31 antibody (Pharmingen, #01951D). Antibody staining was visualized with peroxidase-conjugated anti-mouse antibody and counter stained with hematoxylin. A negative control was performed on each tumor tissue stained with mouse IgG. Two sections from each tumor were scanned under low power magnification (40×) to identify areas of highest CD31 positive vessel density (Weidner et al. 1991), followed by digitization of 5 fields from this area. The digitized images representing one 100× field were counted for the number of CD31 positive vascular elements. Data was collected independently by two researchers in a blind study. The average number of microvessels per digitized 100× field was determined for 5 tumors per experimental group and analyzed by Student's t-test. […] Tumor volumes were recorded daily (FIG. 15). […] Microvessel density was assessed from multiple digitized images of CD31-stained tumor tissue at 100× magnification (3 fields were evaluated per tumor) and counted blindly for the number of CD31 positive microvessels per unit surface area as described (Weidner et al., (1991) N. Engl. J. Med. 324:1). […]

[4] = Tolerability of treatment in tumor-bearing mice; type: in vivo, mouse; details: 100 mg/kg daily i.p. in 100% DMSO for 2 weeks
Experimental: LY294002 was administered at a dosage of 100 mg/kg delivered daily by intraperitoneal injection in a small volume of 100% DMSO for 2 weeks, beginning 2 days after tumor implantation. […] Control mice were injected with small volume ([…]) of 100% DMSO. Daily measurement of tumor volume was performed in 3 coordinates using calipers.

[5] = system: J774A.1 cells; assay: Fcγ receptor mediated phagocytosis of IgG sensitized sRBCs by J774A.1 cells (phagocytic index); type: cell-based, mouse
[6] = system: Cbl; assay: Tyrosine phosphorylation of Cbl after stimulation with sensitized sRBCs (Cbl IP, anti-phosphotyrosine immunoblot); type: cell-based, mouse
[7] = system: U87MG glioblastoma cells, null for PTEN; assay: MTT viable cell assay, chemosensitivity of parental PTEN-null U87MG glioblastoma cells; type: cell-based, human
Experimental: (§1) MTT assays. Cells were seeded (6000/well) into a 96 well plate. Twenty-four hours later the growth medium was changed to 1% serum and other reagents were added as described. Treatments proceeded for 24-72 h. At each time point the MTT assay was performed. MTT (10 ul of a 5 mg/ml stock solution dissolved in RPMI medium) is added to each well of cultures 4 hours before quantitation of viable cell number by measuring absorbance in each well at 650 nm with a microplate reader (Molecular Devises,) Agents added to cell LY294002 alone or in combination with etoposide. In addition, comparison was made between U87MG cells null for PTEN and reconstituted with PTEN protein. The absorbance of each well was measured at […] with a microplate reader.

[8] = system: Glioblastoma cells engineered to stably express wild-type PTEN; assay: MTT viable cell assay, chemosensitivity of glioblastoma cells stably expressing wild-type PTEN; type: cell-based, human
Experimental: as §1

Compound: O=c1cc(N2CCOCC2)oc2c(-c3ccccc3)cccc12 [LY294002]
- mice with grossly detectable or histologic evidence of intracranial tumor [1]: 0/5
- tumor size at the time of microvessel analysis [2]: approximately 35 mm3
- microvessel density (MVD), CD31 positive microvessels [3]: 22±5
- untoward effects in treated mice [4]: No untoward effects

Compound: Cc1ccc(-c2nn(C(C)(C)C)c3ncnc(N)c23)cc1 [PP1]
- inhibition of phagocytosis of IgG coated sRBCs (phagocytic index) ([5]; PP1 10 μM, 1 h pretreatment, target to effector ratio 100:1): completely abrogated phagocytosis; also recorded: blocks the phagocytosis significantly
- dose dependence of inhibition of phagocytosis ([5]; PP1 1, 5, 10 μM): dose dependent manner
- inhibition of phagocytosis of sensitized sRBCs ([5]; preincubation of the cells, concentration not given): inhibit this response
- tyrosine phosphorylation of Cbl induced by sensitized sRBCs ([6]; PP1 10 μM, stimulation with sRBCs 5 minutes): inhibited significantly; also recorded: abrogated
- dose dependence of the effect on Cbl tyrosine phosphorylation ([6]; data not shown): dose dependent
- basal tyrosine phosphorylation levels of Cbl ([6]; resting cells): suppressed the basal tyrosine phosphorylation levels of Cbl

Compound: COc1cc([C@@H]2c3cc4c(cc3[C@@H](O[C@@H]3O[C@@H]5CO[C@@H](C)O[C@H]5[C@H](O)[C@H]3O)[C@H]3COC(=O)[C@H]23)OCO4)cc(OC)c1O [etoposide]
- IC50 ([7]; Homo sapiens, U-87 MG, U87MG null for PTEN, or cells stably expressing catalytically inactive PTEN (R130M cells), read-out: etoposide required to achieve a 50% cell kill): 4.7 µM
- cytotoxic activity of etoposide alone ([7]; etoposide 1 uM): minimal cytotoxic activity
- increase in sensitivity to etoposide, wild-type PTEN versus PTEN-null cells ([8]; 0.047 μM versus 4.7 μM): 100 fold
- IC50 ([8]; Homo sapiens, cells stably expressing wild-type PTEN, read-out: etoposide required to achieve a 50% cell kill): 47 nM
